According to patent US20040067507A1, “Liver inflammation predictive genes” (priority 2002, published 2004):
Where two headings read alike, the source gives them in different places.

Test system: Sprague Dawley rats Crl:CD
Type: in vivo, rat
Text: In addition to the database described and utilized herein, other toxicology gene expression databases may be generated, and used to identify additional liver toxicity biomarkers, which may also be employed in the practice of the liver inflammation prediction methods of the invention. […] An example of compounds, dose levels, liver toxicity classifications and histopathology scores used in the Examples which follow are provided in Table 1. The compounds and dose levels are abbreviated in the Abbreviation Column. The Inflammation Score relates the histopathology liver inflammation, a score of “2” or higher indicates histopathology of increasing severity.
Identification of Correlating Genes: For the purpose of identifying candidate predictive genes, the database preferably includes histopathology scores for each animal which has been exposed to one or more agent(s). […] The scores are numerical scores that reflect the occurrence and severity of histopathological changes. These scores can be adjusted to have similar range to gene expression changes. […] Because the scores are numerical, they are suitable for use with a variety of statistical correlation and similarity measures.
Sprague Dawley rats Crl:CD from Charles River, Raleigh, N.C. were divided into treated rats that receive a specific concentration of the compound (see Table 1) and the control rats that only received the vehicle in which the compound is mixed (e.g., saline).
At specified timepoints (6 h, 24 h and 72 h) after administration (intraperitoneal route) of the compound, a set number of rats (usually 3 control and 3 treated) were euthanized and tissues collected. Each rat was heavily sedated with an overdose of CO2 by inhalation and a maximum amount of blood drawn. Exsanguination of the rat by this drawing of blood kills the rat. The method of collecting the tissues is very important and ensures preserving the quality of the mRNA in the tissues. The body of the rat was then opened up and prosectors rapidly removed the tissues (including liver) and immediately placed them into liquid nitrogen. […] The organs/tissues were then packaged into well-labeled plastic freezer quality bags and stored at −80 degrees until needed for isolation of the mRNA from a portion of the organ/tissue sample.
Correlation with Histopathology Scores: Histopathology scores for each animal (assigned on a compound-dose basis as indicated in Table 1) were entered with gene expression data by using the GeneSpring™ ‘Drawn Gene’ function. Correlations between inflammation histopathology scores and gene expression were conducted with the distance measures listed below: […]

[1] = 2.5 mg/kg i.p., 72 h, 1=no histopathology, 2 or higher=increasing severity
[2] = 10 mg/kg i.p., 72 h, 1=no histopathology, 2 or higher=increasing severity
[3] = 30 mg/kg i.p., 72 h, 1=no histopathology, 2 or higher=increasing severity
[4] = 50 mg/kg i.p., 72 h, 1=no histopathology, 2 or higher=increasing severity
[5] = 200 mg/kg i.p., 72 h, 1=no histopathology, 2 or higher=increasing severity
[6] = Sprague Dawley Crl:CD, rat, in vivo, ip
[7] = 2 mg/kg i.p., 72 h, 1=no histopathology, 2 or higher=increasing severity
[8] = 8 mg/kg i.p., 72 h, 1=no histopathology, 2 or higher=increasing severity
[9] = Sprague Dawley Crl:CD, rat, in vivo
[10] = 0.2 ml/kg i.p., 72 h, 1=no histopathology, 2 or higher=increasing severity
[11] = 0.8 ml/kg i.p., 72 h, 1=no histopathology, 2 or higher=increasing severity
[12] = 1 mg/kg i.p., 72 h, 1=no histopathology, 2 or higher=increasing severity
[13] = 4 mg/kg i.p., 72 h, 1=no histopathology, 2 or higher=increasing severity
[14] = 250 mg/kg i.p., 72 h, 1=no histopathology, 2 or higher=increasing severity
[15] = 1000 mg/kg i.p., 72 h, 1=no histopathology, 2 or higher=increasing severity
[16] = 0.25 ml/kg i.p., 72 h, 1=no histopathology, 2 or higher=increasing severity
[17] = 1 ml/kg i.p., 72 h, 1=no histopathology, 2 or higher=increasing severity
[18] = 20 mg/kg i.p., 72 h, 1=no histopathology, 2 or higher=increasing severity
[19] = 80 mg/kg i.p., 72 h, 1=no histopathology, 2 or higher=increasing severity
[20] = 13 mg/kg i.p., 72 h, 1=no histopathology, 2 or higher=increasing severity

`N.N.[Cl][Pt][Cl]` [cisplatin] was tested, and the “Liver Inflammation” value (2.5 mg/kg i.p., 72 h) was “no”, the “Liver Necrosis” value (2.5 mg/kg i.p., 72 h) was “no” and the “Inflamm. Score” value [1] was 1. For the same compound, the “Necr. Score” value [1] was 1, the “Liver Inflammation” value (10 mg/kg i.p., 72 h) was “no” and the “Liver Necrosis” value (10 mg/kg i.p., 72 h) was “no”. The “Inflamm. Score” value [2] was 1 and the “Necr. Score” value [2] was 1.
With `c1ccc2c(c1)cc1ccc3cccc4ccc2c1c34` [benzo[a]pyrene] the “Liver Inflammation” value (30 mg/kg i.p., 72 h) was “no”, the “Liver Necrosis” value (30 mg/kg i.p., 72 h) was “no” and the “Inflamm. Score” value [3] was 1. For the same compound, the “Necr. Score” value [3] was 1.
`NNC(=O)c1ccncc1` [isoniazid] was tested, and the “Liver Inflammation” value (50 mg/kg i.p., 72 h) was “no”, the “Liver Necrosis” value (50 mg/kg i.p., 72 h) was “no” and the “Inflamm. Score” value [4] was 1. The “Necr. Score” value [4] was 1, the “Liver Inflammation” value (200 mg/kg i.p., 72 h) was “no” and the “Liver Necrosis” value (200 mg/kg i.p., 72 h) was “no”. The “Inflamm. Score” value [5] was 1 and the “Necr. Score” value [5] was 1.
`COc1cc2c(c3oc(=O)c4c(c13)CCC4=O)[C@@H]1C=CO[C@@H]1O2` [aflatoxin] was tested, and the “Inflamm. Score” value (rat, in vivo) was 4, the “Liver Inflammation” value (rat, in vivo) was “yes” and the “Liver Necrosis” value (rat, in vivo) was “yes”. For the same compound, the “Necr. Score” value (rat, in vivo) was 8.
For `CCO` [ethanol], the “Inflamm. Score” value [6] was 1, the “Necr. Score” value [6] was 1 and the “Liver Inflammation” value (rat, in vivo, ip) was “no”. For the same compound, the “Liver Necrosis” value (rat, in vivo, ip) was “no”.
With lipopolysaccharide the “Liver Inflammation” value (2 mg/kg i.p., 72 h) was “no”, the “Liver Necrosis” value (2 mg/kg i.p., 72 h) was “no” and the “Inflamm. Score” value [7] was 1. The “Necr. Score” value [7] was 1, the “Liver Inflammation” value (8 mg/kg i.p., 72 h) was “yes” and the “Liver Necrosis” value (8 mg/kg i.p., 72 h) was “yes”. The “Inflamm. Score” value [8] was 2, the “Necr. Score” value [8] was 6 and the “liver necrosis or necrosis with inflammation” value (from here on “liver necrosis or necrosis”) (high dose) was “produced liver necrosis or necrosis with inflammation”. For the same compound, the “liver necrosis or necrosis” value (low dose) was “not at the low dose”.
In the case of `CC(=O)N1CCN(c2ccc(OCC3COC(Cn4ccnc4)(c4ccc(Cl)cc4Cl)O3)cc2)CC1` (centres unmarked) [ketoconazole], the “Inflamm. Score” value [9] is reported as 1, the “Necr. Score” value [9] is reported as 1 and the “Liver Inflammation” value (rat, in vivo) is reported as “no”. The “Liver Necrosis” value (rat, in vivo) was “no”.
In the case of `Brc1ccccc1` [bromobenzene], the “Liver Inflammation” value (0.2 ml/kg i.p., 72 h) is reported as “yes”, the “Liver Necrosis” value (0.2 ml/kg i.p., 72 h) is reported as “yes” and the “Inflamm. Score” value [10] is reported as 2. The “Necr. Score” value [10] was 2, the “Liver Inflammation” value (0.8 ml/kg i.p., 72 h) was “yes” and the “Liver Necrosis” value (0.8 ml/kg i.p., 72 h) was “yes”. The “Inflamm. Score” value [11] was 3 and the “Necr. Score” value [11] was 4.
For `[Cl][Cd][Cl]` [cadmium chloride], the “Liver Inflammation” value (1 mg/kg i.p., 72 h) was “no”, the “Liver Necrosis” value (1 mg/kg i.p., 72 h) was “no” and the “Inflamm. Score” value [12] was 1. For the same compound, the “Necr. Score” value [12] was 1, the “Liver Inflammation” value (2 mg/kg i.p., 72 h) was “no” and the “Liver Necrosis” value (2 mg/kg i.p., 72 h) was “no”. The “Inflamm. Score” value [7] was 1, the “Necr. Score” value [7] was 1 and the “Liver Inflammation” value (4 mg/kg i.p., 72 h) was “yes”. The “Liver Necrosis” value (4 mg/kg i.p., 72 h) was “yes”, the “Inflamm. Score” value [13] was 2 and the “Necr. Score” value [13] was 3.
`O=C(O)c1cc(-c2ccc(F)cc2F)ccc1O` [diflunisal] was tested, and the “Inflamm. Score” value [9] was 1, the “Necr. Score” value [9] was 1 and the “Liver Inflammation” value (rat, in vivo) was “no”. For the same compound, the “Liver Necrosis” value (rat, in vivo) was “no”.
`Cn1c(=O)c2[nH]cnc2n(C)c1=O` [theophylline] was tested, and the “Inflamm. Score” value [9] was 1, the “Necr. Score” value [9] was 1 and the “Liver Inflammation” value (rat, in vivo) was “no”. For the same compound, the “Liver Necrosis” value (rat, in vivo) was “no”.
In the case of `NC(=O)NO` [hydroxyurea], the “Liver Inflammation” value (250 mg/kg i.p., 72 h) is reported as “no”, the “Liver Necrosis” value (250 mg/kg i.p., 72 h) is reported as “no” and the “Inflamm. Score” value [14] is reported as 1. The “Necr. Score” value [14] was 1, the “Liver Inflammation” value (1000 mg/kg i.p., 72 h) was “no” and the “Liver Necrosis” value (1000 mg/kg i.p., 72 h) was “no”. The “Inflamm. Score” value [15] was 1 and the “Necr. Score” value [15] was 1.
For `ClC(Cl)(Cl)Cl` [carbon tetrachloride], the “Liver Inflammation” value (0.25 ml/kg i.p., 72 h) was “no”, the “Liver Necrosis” value (0.25 ml/kg i.p., 72 h) was “yes” and the “Inflamm. Score” value [16] was 1. For the same compound, the “Necr. Score” value [16] was 3, the “Liver Inflammation” value (1 ml/kg i.p., 72 h) was “yes” and the “Liver Necrosis” value (1 ml/kg i.p., 72 h) was “yes”. The “Inflamm. Score” value [17] was 3, the “Necr. Score” value [17] was 6 and the “liver necrosis or necrosis” value (high dose) was “produced liver necrosis or necrosis with inflammation”. For the same compound, the “liver necrosis or necrosis” value (low dose) was “not at the low dose”.
For `O=P1(N(CCCl)CCCl)NCCCO1` (centres unmarked) [cyclophosphamide], the “Inflamm. Score” value [9] was 1, the “Necr. Score” value [9] was 1 and the “Liver Inflammation” value (rat, in vivo) was “no”. The “Liver Necrosis” value (rat, in vivo) was “no”.
`CN(C)N=O` [dimethylnitrosamine] was tested, and the “Liver Inflammation” value (20 mg/kg i.p., 72 h) was “yes”, the “Liver Necrosis” value (20 mg/kg i.p., 72 h) was “yes” and the “Inflamm. Score” value [18] was 4. The “Necr. Score” value [18] was 9.
With `NNc1ccccc1` [phenylhydrazine] the “Liver Inflammation” value (20 mg/kg i.p., 72 h) was “no”, the “Liver Necrosis” value (20 mg/kg i.p., 72 h) was “no” and the “Inflamm. Score” value [18] was 1. The “Necr. Score” value [18] was 1, the “Liver Inflammation” value (80 mg/kg i.p., 72 h) was “no” and the “Liver Necrosis” value (80 mg/kg i.p., 72 h) was “no”. The “Inflamm. Score” value [19] was 1 and the “Necr. Score” value [19] was 1.
For `Cn1cnc([N+](=O)[O-])c1Sc1ncnc2nc[nH]c12` [azathioprine], the “Inflamm. Score” value [9] was 1, the “Necr. Score” value [9] was 1 and the “Liver Inflammation” value (rat, in vivo) was “no”. For the same compound, the “Liver Necrosis” value (rat, in vivo) was “no”.
With `O=c1[nH]cc(F)c(=O)[nH]1` [5-fluorouracil] the “Liver Inflammation” value (13 mg/kg i.p., 72 h) was “no”, the “Liver Necrosis” value (13 mg/kg i.p., 72 h) was “no” and the “Inflamm. Score” value [20] was 1. The “Necr. Score” value [20] was 1, the “Liver Inflammation” value (50 mg/kg i.p., 72 h) was “no” and the “Liver Necrosis” value (50 mg/kg i.p., 72 h) was “no”. The “Inflamm. Score” value [4] was 1 and the “Necr. Score” value [4] was 1.
For `CC(=O)Nc1ccc(O)cc1` [acetaminophen], the “Inflamm. Score” value [9] was 1 and the “Liver Inflammation” value (rat, in vivo) was “no”.
For `Nc1nc(O)c2ncn(COC(CO)CO)c2n1` [gancyclovir], the “Liver Inflammation” value (50 mg/kg i.p., 72 h) was “no”, the “Liver Necrosis” value (50 mg/kg i.p., 72 h) was “no” and the “Inflamm. Score” value [4] was 1. The “Necr. Score” value [4] was 1, the “Liver Inflammation” value (200 mg/kg i.p., 72 h) was “no” and the “Liver Necrosis” value (200 mg/kg i.p., 72 h) was “no”. The “Inflamm. Score” value [5] was 1 and the “Necr. Score” value [5] was 1.
With `C=CCN1CC[C@]23c4c5ccc(O)c4O[C@H]2C(=O)CC[C@@]3(O)[C@H]1C5` [naloxone] the “Inflamm. Score” value [9] was 1, the “Necr. Score” value [9] was 1 and the “Inflamm. Score” value [6] was 1. For the same compound, the “Necr. Score” value [6] was 1, the “Liver Inflammation” value (rat, in vivo) was “no” and the “Liver Necrosis” value (rat, in vivo) was “no”. For the same compound, the “Liver Inflammation” value (rat, in vivo, ip) was “no” and the “Liver Necrosis” value (rat, in vivo, ip) was “no”.
